Measured values: patent US12515027B2, “Subcutaneous biodegradable reservoir device” (Research Triangle Institute, priority 2018, dated 2026)
Converted amounts (≈) assume the structure as drawn. “And” between values parts separate entries of the source, which are not always exact repeats. Equal entries are not always repeated. Structures can show the parent of a compound that is named as a salt.

How the values were obtained:
[1] = Chromatographic purity (stability) of formulation inside implant after in-vitro exposure (UPLC/UV); type: physicochemical
[2] = In vivo study of one or two subcutaneous PC12 implants, 90 days (Example 20); design: species or system New Zealand white rabbits; conditions: hormone in subcutaneous implant
Method: In vivo analysis was performed with 20 naïve New Zealand white rabbits. […] In particular, female NZW rabbits each received two subcutaneous implants bilaterally inserted into the subscapular region: (1) one implant that contained an ARV drug and (2) one implant that contained a hormonal contraceptive drug. Both implants remained in the subcutaneous space for 90 days. Blood samples were taken at 0, 1, 3, 7, […], 45, 60, 75, and 90 days. After 90 days, the animals were euthanized, and the implants were retrieved. Tissues were collected and analyzed for levels of ARVs (TFV, TAF, and TFV-DP). As a comparator for the dual insertion modality, each female NZW rabbit in a separate group received a single implant, where each implant contained a single drug formulation: either ARV or hormone. The implant remained in the subcutaneous space for 90 days. Blood samples were taken at 0, 1, 3, 7, 15, 30, 45, 60, 75, and 90 days. After 90 days, the animals were euthanized, and the implants were retrieved. Tissues were collected and analyzed for levels of ARVs (TFV, TAF, and TFV-DP). The polymer was PC12.

[3] = Evaluation of Elvitegravir for use in the device
Method: Elvitegravir, which is marketed by Gilead, was also evaluated.

[4] = rhesus monkey, in vivo; cited from earlier work
[5] = In vitro release from PCL reservoir implants in PBS pH 7.4 at 37 °C (UV-Vis); type: physicochemical; conditions: for Daily RR: PCL 89 kDa
Method: The implants were incubated in 1×PBS (pH 7.4) at 37° C. Drug quantity released in media was measured via UV-Vis three times per week during which the implants were transferred to fresh buffer to maintain sink conditions. Drug concentrations were determined by correlating UV absorbance values to a standard curve. Standard curves involved measuring peak absorbance values as a function of drug concentrations diluted by half from bulk solutions. Peak absorbance values were determined by scanning the dilute drug solutions from 230 to 700 nm at a step size of 1 nm and assessing the maximum UV absorbance value.
Testing was performed to evaluate release kinetics of varying formulations of active agent and excipient. In particular, the release mechanism and release profiles for TAF formulated with varying mass quantities of castor oil from extruded PCL tubes was evaluated. Heat extruded PCL devices were fabricated (2.5 mm×40 mm) using 80 kDa Sigma grade PCL. […] For the in vitro release studies, devices were incubated in 40 mL of phosphate buffered saline (PBS) at pH 7.4 in a shaking incubator at 37° C. The implants were transferred to fresh buffer three times per week to maintain sink conditions.
Testing was performed to evaluate the in vitro release profile for an exemplary segmented device. In-vitro conditions included a simulated physiological media of a salt solution at pH between 6.5 and 7.5 at a temperature of 37° C. The exemplary device was engineered to release two APIs simultaneously, both at zero-order release kinetics. The device was fabricated with a segmented architecture that contained LNG formulated with ethyl oleate at a 1:4 ratio and EFdA formulated with castor oil at a 1:1 ratio and housed in separate compartments within a single implant design. Different segment lengths, polymer membrane thicknesses and polymer properties were tested.
In vitro release characterization involved incubation of the implants in 40 mL 1× phosphate buffered saline (PBS) (pH 7.4) at 37° C. and placed on an orbital shaker. […] The release buffer was sampled three times per week during which the devices were transferred to 40 mL of fresh buffer to maintain sink conditions. TAF quantity released in each PBS buffer during the time interval was calculated and cumulative mass of drug release as a function of time was determined.

[6] = Naltrexone excipient screen, rapid solubility assay; type: physicochemical
Method: Heat extruded polycaprolactone (PCL) tubes were fabricated (2.5 mm×40 mm) using 80 kDa PCL to produce devices with 70 μm and 100 μm wall thicknesses. […] In vitro release studies involved incubation of devices in 40 mL of phosphate buffered saline (PBS), pH 7.4 in a shaking incubator at 37° C. Implants were transferred to fresh buffer three times per week to maintain sink conditions. The concentration of drugs released in media over time was measured via UV-vis spectroscopy. Solubility, stability, and purity of APIs in excipient were evaluated via HPLC.

[7] = Stability of Naltrexone base in excipients; type: physicochemical; conditions: stability results
[8] = physchem; conditions: 37 °C, organic solvent or mixture, thermodynamic from solid, Solubility
Method: Over a 24-hour period, the solutions were mixed periodically and returned to the water bath. After approximately 72 hours, the solutions were removed from the water bath and appearance recorded for each of the saturated solutions. […] The supernatants were prepared for analysis by UPLC. Triplicate weighed aliquots were prepared from the collected supernatants and analyzed for assay using a UPLC/UV method. The analysis was performed using a Waters BEH C18 column (2.1 mm×50 mm, 1.7 μm) under gradient, reversed phase conditions with detection at 260 nm. The saturated solutions were quantitated by linear regression analysis against a 5-point calibration curve.
Testing using the same methodology was performed for EFdA, LNG, and ENG using various excipients.

[9] = segmented implant: ENG:sesame oil 2:1 (10 mm, 200 μm) + TAF base:castor oil 2:1 (40 mm, 70 μm)
[10] = segmented implant: ENG:sesame oil 2:1 (10 mm, 200 μm) + TAF base:sesame oil 2:1 (40 mm, 70 μm)

C#C[C@]1(O)CC[C@H]2[C@@H]3CCC4=CC(=O)CC[C@@H]4[C@H]3CC[C@@]21CC [LNG, Levonorgestrel]
stability within an exemplary implant ([1]; tested at 240 days in in-vitro conditions): greater than 92% | stability in vivo for 90 days [2]: 99.2%±0.1

COc1cc2c(cc1Cc1cccc(Cl)c1F)c(=O)c(C(=O)O)cn2[C@H](CO)C(C)C [Elvitegravir]
aqueous solubility [3]: low

CC(Cn1cnc2c(N)ncnc21)OCP(=O)(O)OP(=O)(O)OP(=O)(O)O (stereo in doubt) [TFV-DP, tenofovir diphosphate]
duration of sustained levels in PBMCs [4]: 83 days

C#C[C@]1(O)CC[C@H]2[C@@H]3CCC4=CC(=O)CC[C@@H]4[C@H]3C(=C)C[C@@]21CC [ENG, Etonogestrel]
% Purity at 180 Days ([1]; after 180-day in-vitro exposure, 200 μm implants per b165 (second listing in Table 5)): 99% | stability within an exemplary implant ([1]; tested at 180 days in in-vitro conditions): > 99% | stability in vivo for 90 days [2]: 99.5% | Release rate ([5]; 10 mm-long devices, 200 μm implants per b165 (second listing in Table 5)): ~30 µg/day | start of deviation from linear release ([5]; ENG 1:4 and 1:1 drug to excipient ratios, depletion of drug): ~50 days | duration of sustained release with zero-order kinetics ([5]; ENG 2:1 ratio with castor oil or sesame oil): approximately 300 days | sustained period of release at about 30 μg/day ([5]; exemplary device, in vitro conditions): up to 180 days | duration of linear release profile in vitro ([5]; exemplary formulations, summary statement): 230 days | Daily RR [5, 9]: 26.2 ± 7.1 µg/day | Daily RR [5, 10]: 26.3 ± 6.7 µg/day | duration of zero-order release from segmented implants ([5]; segmented implants of TAF with LNG or ENG): 50 days

CC(C)OC(=O)[C@H](C)N[P@](=O)(CO[C@H](C)Cn1cnc2c(N)ncnc21)Oc1ccccc1 [TAF base]
Daily RR [5, 9]: 94.8 ± 17.6 µg/day | Daily RR [5, 10]: 57.9 ± 8.6 µg/day | Daily RR ([5]; segmented implant: LNG:sesame oil 2:1 (20 mm, 70 μm) + TAF base:castor oil 2:1 (30 mm, 70 μm)): 86.4 ± 10.3 µg/day | Daily RR ([5]; segmented implant: LNG:sesame oil 2:1 (20 mm, 70 μm) + TAF base:sesame oil 2:1 (30 mm, 70 μm)): 47.7 ± 6.7 µg/day

O=C1CC[C@@]2(O)[C@H]3Cc4ccc(O)c5c4[C@@]2(CCN3CC2CC2)[C@H]1O5 [Naltrexone Salt, Naltrexone hydrochloride]
Sum of impurities (% total area) ([6]; API alone, no excipient (reference line), hydrochloride): 4.10% | Assay ([6]; in PEG600, hydrochloride): <0.1 mg/mL | Assay ([6]; in castor oil, hydrochloride): <0.1 mg/mL | Assay ([6]; in ethyl oleate, hydrochloride): No measurable solubility | Assay ([6]; in sesame oil, hydrochloride): No measurable solubility

O=C1CC[C@@]2(O)[C@H]3Cc4ccc(O)c5c4[C@@]2(CCN3CC2CC2)[C@H]1O5 [Naltrexone Base, Naltrexone]
Sum of impurities (% total area) ([7]; with PEG600): 5.10% | Sum of impurities (% total area) ([7]; with castor oil): 5.20% | Sum of impurities (% total area) ([7]; with ethyl oleate): 9.90% | Sum of impurities (% total area) ([7]; with sesame oil): 6.40% | Sum of impurities (% total area) ([6]; API alone, no excipient (reference line)): 2.50% | Sum of impurities (% total area) ([6]; excipient screen, in PEG600): 2.10% | Sum of impurities (% total area) ([6]; excipient screen, in castor oil): 4.50% | Sum of impurities (% total area) ([6]; excipient screen, in ethyl oleate): 9.60% | Sum of impurities (% total area) ([6]; excipient screen, in sesame oil): 3.20% | Assay ([6]; in PEG600): 46.2 mg/mL | Assay ([6]; in castor oil): 9.63 mg/mL | Assay ([6]; in ethyl oleate): 2.79 mg/mL | Assay ([6]; in sesame oil): 4.62 mg/mL

C#C[C@]1(CO)O[C@@H](n2cnc3c(N)nc(F)nc32)C[C@@H]1O [EFdA]
% Purity at Day-365 ([1]; EFdA with castor oil): 99.3% | % Purity at Day-365 ([1]; EFdA with ethyl oleate): 99.4% | % Purity at Day-365 ([1]; EFdA with glycerol): 99.5% | % Purity at Day-365 ([1]; EFdA with propylene glycol): 99.5% | % Purity at Day-365 ([1]; EFdA with sesame oil): 99.3% | stability within an exemplary implant ([1]; after 1 year in in-vitro conditions): ~99% | purity after 1 year of exposure to in-vitro conditions ([1]; all EFdA implants, Day-365): > 99% | solubility at 72 h [8]: 34.9 mg/mL (≈ 119 mM) | release rate for the glycerol device ([5]; 70 μm wall, FIG. 11C study): 30 μg of EFdA/day | release rate for the sesame oil device ([5]; 70 μm wall, FIG. 11C study): 8 μg of EFdA/day | duration of sustained linear release ([5]; EFdA castor oil devices, 70 μm, medical grade PCL): 1 year | exposure after which release deviated from zero-order ([5]; EFdA formulations other than castor oil): > 200 days | duration of zero-order kinetics ([5]; EFdA segment of segmented implant): 1 year | duration of sustained, zero order release ([5]; EFdA with varying excipients, 70 μm wall): over 60 days | duration of sustained zero-order release ([5]; EFdA-castor oil devices, 80 KDa PCL, 70 μm wall): 200 days | Release Rate (μg/day, 10 mm device) ([5]; EFdA:castor oil 1:1, 70 μm wall): 10 µg/day and 10.0 µg/day | Release Rate (μg/day, 10 mm device) ([5]; EFdA:ethyl oleate 1:1, 70 μm wall): 13.0 µg/day | Release Rate (μg/day, 10 mm device) ([5]; EFdA:glycerol 1:1, 70 μm wall): 15 µg/day and 15.0 µg/day | Release Rate (μg/day, 10 mm device) ([5]; EFdA:propylene glycol 1:1, 70 μm wall): 11.0 µg/day | Release Rate (μg/day, 10 mm device) ([5]; EFdA:sesame oil 1:1, 70 μm wall): 12.0 µg/day | duration of sustained linear release ([5]; exemplary EFdA formulations, summary statement): over 1 year | release profile / release rate ([5]; exemplary formulations/devices, summary statement): 5 to 30 µg/day | duration of zero-order release ([5]; segmented implant LNG/EFdA): 6 months | release rate of segment ([5]; segmented implant: LNG:ethyl oleate 1:4 and EFdA:castor oil 1:1, 70 μm wall, EFdA after burst of first 10 days): ~20 µg/day

Nc1nc(=O)n([C@@H]2CS[C@H](COP(=O)(O)OP(=O)(O)OP(=O)(O)O)O2)cc1F [FTC-TP, FTC-triphosphate]
duration of sustained levels in PBMCs [4]: 28 days
